# Patent publication US20030187064A1, “Use” (priority 2001, published 2003)
# Values joined by “and” are separate entries in the source; they are usually repeats but may differ in a detail not shown here. Identical values can stand only once.
# How the values were obtained:
# [1] = system: aerobic, Gram-negative bacteria; conditions: cited from earlier work
# [2] = system: Gram-positive bacteria, yeasts, and moulds; conditions: cited from earlier work
# B. anthracis 3.046 = type: cell-based, Bacillus anthracis; conditions: 24 h at 30° C.
# [3] = Irritation effect of shampoo on the scalp; conditions: added to shampoo, 2000 ppm
# caries = test: Caries inhibition by toothpaste with APP; conditions: added to toothpaste, 2000 ppm
# [4] = Preserving effect in shampoo; conditions: 2000 ppm; compared with a normally used preservative
# [5] = Irritation effect of skin cream on the skin; conditions: added to skin cream, 250 or 2000 ppm
# [6] = tests disclosed in the literature (Baute et al. 1993); cited from earlier work
# [7] = cited from earlier work
# B. anthracis = type: cell-based, Bacillus anthracis; conditions: 24 h at 30° C.
# [8] = Preserving effect in toothpaste; conditions: 2000 ppm; compared with sodium benzoate
# Bacillus anthracis = type: cell-based
# [9] = Preserving effect in skin cream (oil-in-water); conditions: 250 or 2000 ppm; compared with methyl paraben
# B. anthracis 204 = type: cell-based, Bacillus anthracis; conditions: 24 h at 30° C.
# [10] = Stability of APP in water; conditions: water at 24° C.
# [11] = system: yeasts and moulds as well as catalase-positive bacteria; conditions: cited from earlier work
# moulds = conditions: pH of 5.5; cited from earlier work
# bacteria = conditions: cited from earlier work
compound,measurement,setting,value
O=S=O [Sulphur Dioxide],Effective concentration for inhibition,[1],250-500 ppm
same,Effective concentration,[2],800-2000 ppm
"O=C1C[C@@H](CO)OC=C1O [APP, 1,5-Anhydro-4-deoxy-D-glycero-hex-1-en-3-ulose]",APP level causing significant inhibition,B. anthracis 3.046,2000 ppm
same,APP level causing total inhibition,B. anthracis 3.046,3000 ppm
same,Irritation effect on the scalp,[3],no irritation effect
same,Inhibition of caries,caries,inhibited caries
same,Preserving effect in shampoo,[4],as good preservatives as the commonly used preservative
same,Irritation effect on the skin,[5],no irritation effect
same,Function as an antibiotic,[6],did not function satisfactorily as an antibiotic
same,Stability,[7]; pH 1.5-5.5,stable
same,half-life,[7]; pH 11-12.5,5 h
same,APP level causing significant inhibition,B. anthracis,2000 ppm
same,APP level causing total inhibition,B. anthracis,4000 ppm and >4000 ppm
same,Preserving effect in toothpaste,[8],as good preservatives as the commonly used preservative
same,Sensitivity in well diffusion test (zones of inhibition),Bacillus anthracis,sensitive
same,Preserving effect in skin cream,[9],as good preservatives as the commonly used preservative
same,APP level causing significant inhibition,B. anthracis 204,4000 ppm and 2000 ppm
same,APP level causing total inhibition,B. anthracis 204,>4000 ppm and 4000 ppm
same,Stability in water,[10]; 2 weeks,stable
same,Stability in water,[10]; after 2 months,completely disappears
C/C=C/C=C/C(=O)O [Sorbic Acid],Effective concentration,[11],500-3000 ppm
"O=C1CO[C@H](CO)[C@@H](O)[C@@H]1O [AF, 1,5-anhydro-D-fructose]",Irritation effect on the scalp,[3],no irritation effect
same,Preserving effect in shampoo,[4],as good preservatives as the commonly used preservative
same,Irritation effect on the skin,[5],no irritation effect
same,Preserving effect in toothpaste,[8],as good preservatives as the commonly used preservative
same,Preserving effect in skin cream,[9],as good preservatives as the commonly used preservative
Propionic Acid and Propionate,Concentration inhibiting moulds,moulds,125 to 12500 ppm
same,Concentration necessary for inhibition of bacteria,bacteria,> 16000 ppm
